From patent publication US7932283B2, “Fungicide N-cyclopropyl-sulfonylamide derivatives” (Bayer Cropscience AG, priority 2006, dated 2011) come the findings set out here.

As a reminder, the chromatographic logP is lipophilicity estimated from chromatographic retention.

The first data set is described as follows: logP by HPLC on reversed-phase column (C 18), EEC Directive 79/B31 Annex V.A8, methods A and B. It counts as physicochemical. Conditions: reversed-phase HPLC column (C 18), HPLC reversed-phase C 18, method A: 43° C., 0.1% aqueous phosphoric acid, acetonitrile, linear gradient 10% to 90% acetonitrile. Here is the method: Calibration was carried out using unbranched alkan-2-ones (having 3 to 16 carbon atoms) with known logP values (determination of the logP values by the retention times using linear interpolation between two successive alkanones).
`Cc1nn(C)c(F)c1C(=O)N(C1CC1)S(=O)(=O)c1cc(O)ccc1O` [Compound 191] registered a chromatographic logP of 2.91.

For `Cc1ccsc1C(=O)N(C1CC1)S(=O)(=O)c1cccc(O)c1` [Compound 13], the chromatographic logP was determined as 3.64.

`Cc1c(C(=O)N(C2CC2)S(=O)(=O)c2ccccc2O)cnn1-c1ccccc1` [Compound 201] showed a chromatographic logP of 2.97.

In turn, `CCOC(=O)c1[nH]c(C)c(C(=O)N(C2CC2)S(=O)(=O)c2ccc(C(F)(F)F)cc2)c1C` [Compound 30] registered a chromatographic logP of 3.72.

`Cc1nc(C(=O)N(C2CC2)S(=O)(=O)c2ccc(C(C)(C)C)cc2)cs1` [Compound 72] returned a chromatographic logP of 3.59.

As to `Cc1nc(C(=O)N(C2CC2)S(=O)(=O)c2ccc(C(F)(F)F)cc2)cs1` [Compound 68], the chromatographic logP was determined as 3.18.

In turn, `Cc1occc1C(=O)N(C1CC1)S(=O)(=O)c1ccccc1O` [Compound 4] registered a chromatographic logP of 2.77.

Molecule `Cc1ncc(C(=O)N(C2CC2)S(=O)(=O)c2ccc(O)c(C(F)(F)F)c2)s1` [Compound 62] had a chromatographic logP of 3.46.

The molecule `O=C(c1cc(Br)c(Br)o1)N(C1CC1)S(=O)(=O)c1ccccc1O` [Compound 1] registered a chromatographic logP of 3.58.

Take `Cc1ccc(S(=O)(=O)N(C(=O)c2c(C)nn(C)c2F)C2CC2)cc1` [Compound 183]: the chromatographic logP was determined as 2.59.

Take `Cc1nn(C)c(F)c1C(=O)N(C1CC1)S(=O)(=O)c1c(F)cccc1F` [Compound 217]: the chromatographic logP is 2.25.

On to `COc1ccc(S(=O)(=O)N(C(=O)c2c(C)nn(C)c2F)C2CC2)cc1` [Compound 184], for which the chromatographic logP turned out to be 2.35.

In turn, `CCOC(=O)c1[nH]c(C)c(C(=O)N(C2CC2)S(=O)(=O)c2cccc(O)c2)c1C` [Compound 29] returned a chromatographic logP of 3.46.

Still in this data set, the particulars now being: reversed-phase HPLC column (C 18), HPLC reversed-phase C 18, method B: 40° C., 0.1% aqueous formic acid and acetonitrile, linear gradient 10% to 90% acetonitrile.
`CCCOc1nn(C)cc1C(=O)N(C1CC1)S(=O)(=O)c1ccc(Oc2ccc(O)cc2Cl)cc1Br` [Compound 301] yielded a chromatographic logP of 4.9.

On to `Cn1nc(C(F)(F)F)c(C(=O)N(C2CC2)S(=O)(=O)c2c(O)cc(C(F)(F)F)cc2O)c1F` [Compound 373], for which the chromatographic logP stood at 3.9.

In the case of `CCCOc1nn(C)cc1C(=O)N(C1CC1)S(=O)(=O)c1ccc(Oc2cccc(O)c2)cc1Br` [Compound 296], the chromatographic logP came to 4.5.

As to `CCCOc1nn(C)cc1C(=O)N(C1CC1)S(=O)(=O)c1ccc(Oc2ccc(OC)c(OC)c2)cc1Br` [Compound 288], the chromatographic logP came to 3.6.

On to `CCCOc1nn(C)cc1C(=O)N(C1CC1)S(=O)(=O)c1ccc(Oc2ccccc2O)cc1Br` [Compound 291], for which the chromatographic logP turned out to be 4.2.

The molecule `CCc1nn(C)c(F)c1C(=O)N(C1CC1)S(=O)(=O)c1ccc(Br)cc1O` [Compound 385] gave a chromatographic logP of 3.4.

With `Cn1nc(C(F)(F)F)c(C(=O)N(C2CC2)S(=O)(=O)c2c(O)cc(O)cc2O)c1F` [Compound 363], the chromatographic logP stood at 3.7.

The molecule `Cn1cc(C(=O)N(C2CC2)S(=O)(=O)c2ccc(Oc3ccccc3)cc2)c(C(F)(F)F)c1` [Compound 38] registered a chromatographic logP of 4.

`CCc1nn(C)c(F)c1C(=O)N(C1CC1)S(=O)(=O)c1ccc(OC)c(OC)c1` [Compound 386] gave a chromatographic logP of 2.5.

Molecule `CC(F)c1nn(C)cc1C(=O)N(C1CC1)S(=O)(=O)c1ccc(Oc2ccc(Br)cc2)cc1` (stereo not shown) [Compound 122] came in with a chromatographic logP of 4.1.

In the case of `CCCOc1nn(C)cc1C(=O)N(C1CC1)S(=O)(=O)c1ccc(Oc2ccc(OC)cc2)cc1Br` [Compound 289], the chromatographic logP worked out at 4.

`COc1ccc(S(=O)(=O)N(C(=O)c2cn(C)nc2OC)C2CC2)cc1OC` [Compound 395]: the chromatographic logP came out at 1.9.

Molecule `Cc1cc(O)cc(O)c1S(=O)(=O)N(C(=O)c1c(C(F)(F)F)nn(C)c1F)C1CC1` [Compound 367] returned a chromatographic logP of 2.6.

`CCc1nn(C)c(F)c1C(=O)N(C1CC1)S(=O)(=O)c1ccc(Oc2ccc(O)cc2)cc1` [Compound 391] showed a chromatographic logP of 4.2.

In the case of `O=C(c1ccsc1I)N(C1CC1)S(=O)(=O)c1ccc(Oc2ccc(Br)cc2)cc1` [Compound 22], the chromatographic logP was found to be 4.9.

`CCc1nn(C)c(F)c1C(=O)N(C1CC1)S(=O)(=O)c1c(O)cc(O)cc1O` [Compound 379] registered a chromatographic logP of 3.6.

For the molecule `CCCOc1nn(C)cc1C(=O)N(C1CC1)S(=O)(=O)c1ccc(Oc2ccc(C)nc2)cc1Br` [Compound 285], the chromatographic logP is 2.7.

`COc1nn(C)c(O)c1C(=O)N(C1CC1)S(=O)(=O)c1cccc(O)c1O` [Compound 278] showed a chromatographic logP of 3.2.

The same data set, now with this note: reversed-phase HPLC column (C 18), LogP method A: HPLC reversed-phase C 18, 43° C., 0.1% aqueous phosphoric acid / acetonitrile, linear gradient 10% to 90% acetonitrile.
The molecule `CCc1onc(C(C)C)c1C(=O)N(C1CC1)S(=O)(=O)c1cccc(O)c1` [Compound 589] returned a chromatographic logP of 4.18.

Take `CCc1onc(C(C)C)c1C(=O)N(C1CC1)S(=O)(=O)c1ccc(O)c(O)c1` [Compound 595]: the chromatographic logP came to 4.77.

`CCc1c(C(=O)N(C2CC2)S(=O)(=O)c2ccc(C(F)(F)F)cc2)sc(=O)n1C1CC1` [Compound 616]: the chromatographic logP stood at 2.01.

Consider `O=C(c1cccnc1Cl)N(C1CC1)S(=O)(=O)c1ccccc1O` [Compound 644], for which the chromatographic logP stood at 2.58.

The molecule `COC(=O)c1csc(C)c1S(=O)(=O)N(C(=O)c1c(C)nn(C)c1F)C1CC1` [Compound 434] had a chromatographic logP of 2.24.

`Cc1n[nH]c(C)c1C(=O)N(C1CC1)S(=O)(=O)c1ccc(O)c(O)c1` [Compound 409] showed a chromatographic logP of 2.74.

Regarding `Cc1nn(C)c(C)c1C(=O)N(C1CC1)S(=O)(=O)c1ccc(O)c(C(F)(F)F)c1` [Compound 411], the chromatographic logP turned out to be 3.37.

Take `COCCn1c(C)c(C(=O)N(C2CC2)S(=O)(=O)c2ccc(C(C)(C)C)cc2)sc1=O` [Compound 621]: the chromatographic logP worked out at 2.01.

The molecule `Cn1nc(C(=O)N(C2CC2)S(=O)(=O)c2ccccc2O)n(C)c1=O` [Compound 608] gave a chromatographic logP of 1.97.

For the molecule `Cc1nn(C)c(Oc2cccc(Cl)c2)c1C(=O)N(C1CC1)S(=O)(=O)c1ccc(C(F)(F)F)cc1` [Compound 400], the chromatographic logP came out at 4.13.

The molecule `Cc1c(C(=O)N(C2CC2)S(=O)(=O)c2cccc(Cl)c2)sc(=O)n1C` [Compound 611] registered a chromatographic logP of 1.01.

`CCc1c(C(=O)N(C2CC2)S(=O)(=O)c2ccc(O)cc2O)sc(=O)n1C1CC1` [Compound 631]: the chromatographic logP is 2.01.

Molecule `Cc1c(C(=O)N(C2CC2)S(=O)(=O)c2ccc(C(F)(F)F)cc2)sc(=O)n1Cc1ccccc1` [Compound 614] displayed a chromatographic logP of 4.08.

`Cc1nn(C)c(Oc2cccc(Cl)c2)c1C(=O)N(C1CC1)S(=O)(=O)c1ccc(O)c(C(F)(F)F)c1` [Compound 404] registered a chromatographic logP of 4.56.

The molecule `Cc1n[nH]c(C)c1C(=O)N(C1CC1)S(=O)(=O)c1cccc(Cl)c1` [Compound 401] came in with a chromatographic logP of 2.45.

Staying with this data set, now noted: reversed-phase HPLC column (C 18), LogP method B: HPLC reversed-phase C 18, 40° C., 0.1% aqueous formic acid / acetonitrile, linear gradient 10% to 90% acetonitrile.
Consider `COc1nn(C)cc1C(=O)N(C1CC1)S(=O)(=O)c1cnn(C)c1O` [Compound 444], for which the chromatographic logP came out at 1.7.

`COc1nn(C)cc1C(=O)N(C1CC1)S(=O)(=O)c1ccc(Oc2ccc(C)c(O)c2)cc1Br` [Compound 470] had a chromatographic logP of 3.8.

`Cc1oncc1C(=O)N(C1CC1)S(=O)(=O)c1ccc(Oc2ccccc2)cc1` [Compound 606]: the chromatographic logP was 3.7.

`COc1nn(C)cc1C(=O)N(C1CC1)S(=O)(=O)c1ccc(Oc2ccc(C(F)(F)F)cc2)cc1Br` [Compound 475] yielded a chromatographic logP of 3.9.

As for `COc1nn(C)cc1C(=O)N(C1CC1)S(=O)(=O)c1ccc(Oc2cccc(C(F)(F)F)c2)cc1Br` [Compound 472], the chromatographic logP was determined as 3.8.

As for `Cc1cnn(C)c1C(=O)N(C1CC1)S(=O)(=O)c1ccc(Oc2ccc(Br)cc2)cc1` [Compound 661], the chromatographic logP was 4.2.

On to `Cc1nn(C)c(O)c1S(=O)(=O)N(C(=O)c1c(C(F)(F)F)nn(C)c1F)C1CC1` [Compound 443], for which the chromatographic logP was 2.6.

`COc1nn(C)cc1C(=O)N(C1CC1)S(=O)(=O)c1ccc(Oc2ccc(Br)cc2)cc1Br` [Compound 474] returned a chromatographic logP of 3.9.

In turn, `CCOc1nn(C)cc1C(=O)N(C1CC1)S(=O)(=O)c1ccc(Oc2cccc(O)c2)cc1O` [Compound 534] showed a chromatographic logP of 3.9.

`COc1nn(C)cc1C(=O)N(C1CC1)S(=O)(=O)c1ccc(Oc2ccc(Cl)c(C(F)(F)F)c2)cc1Br` [Compound 479] gave a chromatographic logP of 4.2.

With `Cc1nocc1C(=O)N(C1CC1)S(=O)(=O)c1ccc(Oc2ccc(Br)cc2)cc1` [Compound 602], the chromatographic logP amounted to 4.2.

In the case of `COc1nn(C)cc1C(=O)N(C1CC1)S(=O)(=O)c1csc(O)c1O` [Compound 440], the chromatographic logP worked out at 3.1.

The molecule `CCOc1nn(C)cc1C(=O)N(C1CC1)S(=O)(=O)c1ccc(Oc2ccccc2O)c(O)c1` [Compound 537] came in with a chromatographic logP of 4.1.

In turn, `CCOc1nn(C)cc1C(=O)N(C1CC1)S(=O)(=O)c1ccc(Oc2ccc(O)cc2Cl)cc1O` [Compound 543] displayed a chromatographic logP of 4.3.

As for `COc1nn(C)cc1C(=O)N(C1CC1)S(=O)(=O)c1ccc(Oc2ccc(Cl)cc2)cc1Br` [Compound 469], the chromatographic logP was 3.8.

`CCOc1nn(C)cc1C(=O)N(C1CC1)S(=O)(=O)c1ccc(Oc2ccc(C)cc2)cc1Cl` [Compound 525]: the chromatographic logP amounted to 2.2.

The molecule `Cn1ncc(I)c1C(=O)N(C1CC1)S(=O)(=O)c1ccc(O)c(O)c1O` [Compound 663] gave a chromatographic logP of 3.4.

Still in this data set, the particulars now being: reversed-phase HPLC column (C 18), Method A: 43° C., 0.1% aqueous phosphoric acid, acetonitrile.
`Cc1nn(C)c(F)c1C(=O)N(C1CC1c1ccccc1)S(=O)(=O)c1ccccc1O` (stereo not shown) [Compound 676] showed a chromatographic logP of 3.27.
